# pEC50, pIC50: −log10 of the molar value. Active and inactive are the calls of the source. No cut-off for these calls is given here.
# Assays:
# Format in all cases: cell-based
# [1] = target: T1, Ferroportin (Homo sapiens, UniProt Q9NP59); test: (§1) Inhibition of recombinant human SLC40A1 expressed in human T-REx-293 cells assessed as reduction in ferroportin internalization incubated for 20 hrs by luciferase reporter gene assay
# T1 sequence (Q9NP59 whole entry): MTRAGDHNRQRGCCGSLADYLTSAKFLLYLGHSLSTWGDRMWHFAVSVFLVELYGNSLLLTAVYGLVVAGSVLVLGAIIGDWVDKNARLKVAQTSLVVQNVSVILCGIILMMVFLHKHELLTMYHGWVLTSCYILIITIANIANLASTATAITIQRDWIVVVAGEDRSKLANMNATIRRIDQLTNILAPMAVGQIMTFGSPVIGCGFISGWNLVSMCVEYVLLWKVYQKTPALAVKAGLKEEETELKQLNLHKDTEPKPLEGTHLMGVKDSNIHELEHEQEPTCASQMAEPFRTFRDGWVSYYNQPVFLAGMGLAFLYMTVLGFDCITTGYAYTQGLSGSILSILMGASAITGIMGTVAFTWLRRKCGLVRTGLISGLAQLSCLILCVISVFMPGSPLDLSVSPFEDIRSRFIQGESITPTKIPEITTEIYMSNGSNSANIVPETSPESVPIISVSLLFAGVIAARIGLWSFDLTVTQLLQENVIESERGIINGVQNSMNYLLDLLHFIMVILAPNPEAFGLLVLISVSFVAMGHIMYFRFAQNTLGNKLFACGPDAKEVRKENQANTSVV
# [2] = target: T2, Ferroportin (Homo sapiens) (UniProt Q9NP59); test: as §1
# T2 sequence (whole entry): T1 sequence (Q9NP59 whole entry)
# [3] = target: T1, Ferroportin; test: Inhibition of human GFP-tagged SLC40A1 expressed in HEK293 cells assessed as ferroportin internalization by fluorescence microscopic analysis
# [4] = target: T1, Ferroportin; test: (§2) Inhibition of recombinant human C-terminal nano luciferase-tagged SLC40A1 expressed in human T-REx-293 cells assessed as ferroportin internalization incubated for 20 hrs measured at 459 nanometer by Hoechst staining based cellomics arrayscan imaging analysis
# [5] = target: T2, Ferroportin (Homo sapiens); test: as §2
# [6] = target: T2, Ferroportin (Homo sapiens); test: Binding affinity to recombinant human C-terminal nano luciferase-tagged SLC40A1 expressed in human T-REx-293 cells assessed as internalization of compound-ferroportin conjugate at 0.0001 to 0.01 mg/ml incubated for 20 hrs measured at 549 nanometer by Hoechst staining based cellomics arrayscan imaging analysis
# [7] = target: T2, Ferroportin (Homo sapiens); test: Inhibition of recombinant human SLC40A1 expressed in human T-REx-293 cells exposed to >4 hrs of doxycycline induction assessed as reduction in ferroportin internalization incubated for 20 hrs by luciferase reporter gene assay relative to control; conditions: concentration not given here
# [8] = target: T2, Ferroportin (Homo sapiens); test: Inhibition of recombinant human C-terminal nano luciferase-tagged SLC40A1 expressed in human T-REx-293 cells assessed as decrease in 55Fe-apotransferrin export at 10 uM preincubated for 24 hrs followed by export buffer and compound addition measured after 5 mins by scintillation counting method
# [9] = target: T2, Ferroportin (Homo sapiens); test: Inhibition of recombinant human SLC40A1 expressed in human T-REx-293 cells exposed to 4 hrs of doxycycline induction assessed as reduction in ferroportin internalization incubated for 20 hrs by luciferase reporter gene assay relative to control; conditions: concentration not given here
smiles,measurement,setting,value
CC[C@H](C)[C@@H]1NC(=O)[C@@H](NC(=O)[C@@H](NC(=O)[C@@H]2CCCN2C(=O)[C@H](Cc2ccccc2)NC(=O)[C@H](Cc2c[nH]cn2)NC(=O)[C@@H](NC(=O)[C@@H](N)CC(=O)O)[C@@H](C)O)[C@@H](C)CC)CSSC[C@@H](C(=O)N[C@@H](CCCCN)C(=O)N[C@H](C(=O)O)[C@@H](C)O)NC(=O)[C@@H]2CSSC[C@@H]3NC(=O)[C@@H]4CSSC[C@H](NC(=O)[C@H](Cc5ccccc5)NC1=O)C(=O)N[C@@H](CSSC[C@H](NC(=O)[C@H](CCCCN)NC(=O)[C@H](CO)NC(=O)[C@H](CCCNC(=N)N)NC(=O)[C@H](Cc1c[nH]cn1)NC3=O)C(=O)NCC(=O)N[C@@H](CCSC)C(=O)N2)C(=O)NCC(=O)N4,pEC50,[1],7.66
CCCCCCCCCCCCCCCC(=O)NCCCOCCOCCOCCCNC(=O)C[C@H](Cc1ccccc1)NC(=O)[C@H](CCCNC(=N)N)NC(=O)[C@@H](CS)NC(=O)[C@H](CCCNC(=N)N)NC(=O)C[C@@H]1CCCN1C(=O)[C@@H](NC(=O)[C@H](Cc1c[nH]cn1)NC(=O)[C@@H](NC(=O)CNCC(=O)O)[C@@H](C)O)C(c1ccccc1)c1ccccc1,inhibition,[2],Dose-dependent effect
CCCCCCCCCCCCCCCC(=O)NCCCOCCOCCOCCCNC(=O)C[C@H](Cc1ccccc1)NC(=O)[C@H](CCCNC(=N)N)NC(=O)[C@H](CS)NC(=O)[C@H](CCCNC(=N)N)NC(=O)C[C@@H]1CCCN1C(=O)[C@@H](NC(=O)[C@H](Cc1c[nH]cn1)NC(=O)[C@@H](NC(=O)CNCC(=O)O)[C@@H](C)O)C(c1ccccc1)c1ccccc1,pEC50,[1],7.68
CC[C@H](C)[C@H](NC(=O)[C@H](CS)NC(=O)[C@@H](NC(=O)[C@@H]1CCCN1C(=O)[C@H](Cc1ccccc1)NC(=O)[C@H](Cc1cnc[nH]1)NC(=O)[C@@H](NC(=O)[C@H](CC(=O)O)NC(C)=O)[C@@H](C)O)[C@@H](C)CC)C(=O)N[C@@H](Cc1ccccc1)C(=O)O,pIC50,[3],7.12
CC[C@H](C)[C@H](NC(=O)[C@H](CS)NC(=O)[C@@H](NC(=O)[C@@H]1CCCN1C(=O)[C@H](Cc1ccccc1)NC(=O)[C@H](Cc1c[nH]cn1)NC(=O)[C@@H](NC(=O)[C@H](CC(=O)O)NC(C)=O)[C@@H](C)O)[C@@H](C)CC)C(=O)N[C@@H](Cc1ccccc1)C(=O)NCCOCCOCCOCC(=O)N[C@H](CCCNC(=N)N)C(=O)N[C@H](CCCNC(=N)N)C(=O)N[C@H](CCCCNC(=O)CCCCCNC(=O)CCC1=C(C)C2=Cc3ccc(-c4ccc(OC)cc4)n3[B-](F)(F)[N+]2=C1C)C(=O)O,pEC50,[4],5.73
same,inhibition,[5],Dose-dependent effect
same,pEC50,[1],6.46
same,inhibition,[2],Dose-dependent effect
same,Activity,[6],Active
CC[C@H](C)[C@@H]1NC(=O)[C@H](NC(=O)[C@@H](NC(=O)[C@@H]2CCCN2C(=O)[C@H](Cc2ccccc2)NC(=O)[C@H](Cc2cnc[nH]2)NC(=O)[C@@H](NC(=O)[C@@H](N)CC(=O)O)[C@@H](C)O)[C@@H](C)CC)CSSC[C@@H](C(=O)N[C@@H](CCCCN)C(=O)N[C@H](C(=O)O)[C@@H](C)O)NC(=O)[C@@H]2CSSC[C@@H]3NC(=O)[C@@H]4CSSC[C@H](NC(=O)[C@H](Cc5ccccc5)NC1=O)C(=O)N[C@@H](CSSC[C@H](NC(=O)[C@H](CCCCN)NC(=O)[C@H](CO)NC(=O)[C@H](CCCNC(=N)N)NC(=O)[C@H](Cc1cnc[nH]1)NC3=O)C(=O)NCC(=O)N[C@@H](CCSC)C(=O)N2)C(=O)NCC(=O)N4,inhibition,[7],25%
same,inhibition,[8],Active
same,inhibition,[2],Dose-dependent effect
same,inhibition,[9],50%

# Reference: ChEMBL document CHEMBL4431298 (Medchemcomm, 2016)
